Assay results published in patent US11759461B2, “Small molecule inhibitors of cancer stem cells and mesenchymal cancer types” (The Scripps Research Institute, priority 2017, dated 2023).

Tested on: FOXC2-expressing HMLER cells
Experiment: Cell Titer Glo viability of FOXC2-HMLER cells (high throughput screen and 10-point response)
Assay type: cell-based
Settings: Homo sapiens; scored relative to parent compound 2; 72 hours; read-out: Activity Score, inhibition of FOXC2-expressing HMLER cells by Formula II compounds
Summary of the method: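 FOXC2-HMLER cells (HMLER run in parallel) seeded at 1,000 cells/well in MEGM, attached 1 h, then given compound in DMSO (2 μM in the screen). After 72 h, viability was read by Cell Titer Glo luminescence.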

| Compound | IC50 |
| --- | --- |
| CCOc1ccc(NC(=O)Cn2c(=O)c(CNc3ccccc3)cc3cc(OC)c(OC)cc32)cc1 [Compound 2GI] | > 20 µM |
| Cc1ccc(NC(=O)Cn2c(=O)c(CNc3ccccc3)cc3cc4c(cc32)OCCO4)cc1 [Compound 2GJ] | > 20 µM |
| COc1ccc(NCc2cc3ccc(OC)cc3n(CC(=O)Nc3ccccc3OC)c2=O)cc1 [Compound 2GK] | > 20 µM |
| CCc1ccc(NCc2cc3ccc(OC)cc3n(CC(=O)NCCc3ccccc3)c2=O)cc1 [Compound 2GL] | > 20 µM |
| CCOC(=O)c1ccc(NC(=O)Cn2c(=O)c(CNc3ccc(C)cc3)cc3ccc(OC)cc32)cc1 [Compound 2GM] | > 20 µM |
| Cc1ccccc1NC(=O)Cn1c(=O)c(CNc2ccccc2)cc2cc3c(cc21)OCCO3 [Compound 2GN] | > 20 µM |
| COc1ccc(NC(=O)Cn2c(=O)c(CNc3ccccc3)cc3cc4c(cc32)OCCO4)cc1 [Compound 2GO] | > 20 µM |
| COc1ccc2cc(CNc3ccc(C)cc3)c(=O)n(CC(=O)NCc3ccc(C)cc3)c2c1 [Compound 2GP] | > 20 µM |
| COc1ccc2cc(CNc3ccccc3)c(=O)n(CC(=O)NCc3ccc(C)cc3)c2c1 [Compound 2GQ] | > 20 µM |
| COc1ccc(NCc2cc3ccc(OC)cc3n(CC(=O)Nc3ccc(C)cc3Cl)c2=O)cc1 [Compound 2GR] | > 20 µM |
| CCc1ccc(NCc2cc3ccc(OC)cc3n(CC(=O)Nc3cc(Cl)ccc3C)c2=O)cc1 [Compound 2GS] | > 20 µM |
| COc1ccc2cc(CNc3ccc(C)cc3)c(=O)n(CC(=O)NCc3ccccc3)c2c1 [Compound 2GT] | > 20 µM |
| Cc1cccc(C)c1NC(=O)Cn1c(=O)c(CNc2ccccc2)cc2cc3c(cc21)OCCO3 [Compound 2GU] | > 20 µM |
| COc1cc(NC(=O)Cn2c(=O)c(CNc3ccccc3)cc3ccc(OC)cc32)cc(OC)c1 [Compound 2GV] | > 20 µM |
| CCOc1ccc(NC(=O)Cn2c(=O)c(CNc3ccccc3)cc3cc4c(cc32)OCCO4)cc1 [Compound 2GW] | > 20 µM |
| COc1ccc2cc(CNc3ccc(C)cc3)c(=O)n(CC(=O)Nc3ccc(OC)c(Cl)c3)c2c1 [Compound 2GX] | > 20 µM |
| COc1ccc(NCc2cc3ccc(C)cc3n(CC(=O)Nc3ccc(C)cc3)c2=O)cc1OC [Compound 2GY] | > 20 µM |
| COc1ccc2cc(CNc3ccc(C)cc3)c(=O)n(CC(=O)Nc3ccccc3C)c2c1 [Compound 2GZ] | > 20 µM |
| COc1ccc2cc(CNc3ccc(C)cc3)c(=O)n(CC(=O)Nc3ccc(F)c(F)c3)c2c1 [Compound 2G] | 1 to 20 µM |
| CCc1ccc(NCc2cc3ccc(OC)cc3n(CC(=O)Nc3ccccc3)c2=O)cc1 [Compound 2HA] | > 20 µM |
| COc1ccc2cc(CNc3ccccc3)c(=O)n(CC(N)=O)c2c1 [Compound 2HB] | > 20 µM |
| CCc1ccc(NCc2cc3ccc(OC)cc3n(CC(=O)Nc3ccccc3Cl)c2=O)cc1 [Compound 2HC] | > 20 µM |
| COc1ccc2cc(CNc3ccc(C)cc3)c(=O)n(CC(=O)Nc3ccccc3OC)c2c1 [Compound 2HD] | > 20 µM |
| COc1ccc(NCc2cc3ccc(OC)cc3n(CC(=O)Nc3cc(C)ccc3C)c2=O)cc1 [Compound 2HE] | > 20 µM |
| COc1ccc2cc(CNc3ccccc3)c(=O)n(CC(=O)Nc3ccc(OC)c(OC)c3)c2c1 [Compound 2HF] | > 20 µM |
| CCc1ccc(NCc2cc3ccc(OC)cc3n(CC(=O)Nc3cccc(C)c3)c2=O)cc1 [Compound 2HG] | > 20 µM |

| Compound | IC50 |
| --- | --- |
| COc1ccc2cc(CNc3ccc(C)cc3)c(=O)n(CC(=O)NCCc3ccccc3)c2c1 [Compound 2HH] | > 20 µM |
| COc1ccc(NCc2cc3cc(OC)c(OC)cc3n(CC(=O)Nc3cccc(C)c3)c2=O)cc1 [Compound 2HI] | > 20 µM |
| COc1ccc2cc(CNc3ccc(C)cc3)c(=O)n(CC(=O)Nc3cccc(Cl)c3)c2c1 [Compound 2HJ] | > 20 µM |
| CCc1ccc(NCc2cc3ccc(OC)cc3n(CC(=O)Nc3ccc(F)cc3)c2=O)cc1 [Compound 2HK] | > 20 µM |
| COc1ccc2c(c1)cc(CNc1ccc(OC)c(OC)c1)c(=O)n2CC(=O)Nc1ccc(C)cc1 [Compound 2HL] | > 20 µM |
| COc1ccc(NC(=O)c2ccccc2NC(=O)CN2C(=O)c3ccccc3C2=O)cc1 [Compound 2HM] | > 20 µM |
| COc1ccc2cc(CNc3ccccc3)c(=O)n(CC(=O)Nc3cc(C)cc(C)c3)c2c1 [Compound 2HN] | > 20 µM |
| COc1ccc(NCc2cc3ccc(C)cc3n(CC(=O)Nc3ccc(C)c(C)c3)c2=O)cc1OC [Compound 2HO] | > 20 µM |
| COc1ccc(NCc2cc3cc4c(cc3n(CC(=O)Nc3c(C)cccc3C)c2=O)OCCO4)cc1 [Compound 2HP] | > 20 µM |
| CCc1ccc(NCc2cc3ccc(OC)cc3n(CC(=O)Nc3cc(C)cc(C)c3)c2=O)cc1 [Compound 2HQ] | > 20 µM |
| CCc1ccc(NCc2cc3cc(OC)c(OC)cc3n(CC(=O)Nc3ccc(C)cc3)c2=O)cc1 [Compound 2HR] | > 20 µM |
| COc1ccccc1NC(=O)Cn1c(=O)c(CNc2ccc(C)cc2)cc2cc(OC)c(OC)cc21 [Compound 2HS] | > 20 µM |
| COc1ccc2cc(CNc3ccccc3)c(=O)n(CC(=O)Nc3ccccc3C)c2c1 [Compound 2HT] | > 20 µM |
| COc1ccc(NC(=O)Cn2c(=O)c(CNc3ccc(OC)c(OC)c3)cc3ccc(C)cc32)cc1 [Compound 2HU] | > 20 µM |
| COc1ccc2cc(CNc3ccc(C)cc3)c(=O)n(CC(=O)Nc3ccc(C(C)=O)cc3)c2c1 [Compound 2HV] | > 20 µM |
| COc1ccc2cc(CNc3ccc(OC)c(OC)c3)c(=O)n(CC(=O)Nc3ccc(C)cc3)c2c1 [Compound 2HW] | > 20 µM |
| COc1cccc(NC(=O)Cn2c(=O)c(CNc3ccc(C)cc3)cc3ccc(OC)cc32)c1 [Compound 2HX] | > 20 µM |
| COc1cccc(CNC(=O)Cn2c(=O)c(CNc3ccc(C)cc3)cc3ccc(OC)cc32)c1 [Compound 2HY] | > 20 µM |
| COc1ccc2cc(CNc3ccc(C)cc3)c(=O)n(CC(=O)NCc3ccc(Cl)cc3)c2c1 [Compound 2HZ] | > 20 µM |
| COc1ccc2cc(CNc3ccc(C)cc3)c(=O)n(CC(=O)Nc3cccc(Cl)c3C)c2c1 [Compound 2H] | 1 to 20 µM |
| COc1ccc2cc(CNc3ccccc3)c(=O)n(CC(=O)NCc3ccc(F)cc3)c2c1 [Compound 2IA] | > 20 µM |
| COc1ccc(NCc2cc3cc(OC)c(OC)cc3n(CC(=O)Nc3ccccc3)c2=O)cc1 [Compound 2IB] | > 20 µM |
| COc1ccc(NCc2cc3ccc(OC)cc3n(CC(=O)Nc3cccc(OC)c3)c2=O)cc1 [Compound 2IC] | > 20 µM |
| COc1ccc(NCc2cc3cc4c(cc3n(CC(=O)Nc3cccc(C)c3)c2=O)OCCO4)cc1 [Compound 2ID] | > 20 µM |
| COc1cc2cc(CNc3ccccc3)c(=O)n(CC(=O)Nc3cccc(Cl)c3)c2cc1OC [Compound 2IE] | > 20 µM |
| COc1cc(NC(=O)Cn2c(=O)c(CNc3ccccc3)cc3ccc(C)cc32)cc(OC)c1 [Compound 2IF] | > 20 µM |

| Compound | IC50 |
| --- | --- |
| COc1ccc(NCc2cc3cc4c(cc3n(CC(=O)Nc3cc(C)cc(C)c3)c2=O)OCCO4)cc1 [Compound 2IG] | > 20 µM |
| CCc1ccc(NCc2cc3cc(OC)c(OC)cc3n(CC(=O)Nc3cc(C)cc(C)c3)c2=O)cc1 [Compound 2IH] | > 20 µM |
| CCOc1ccc(NC(=O)Cn2c(=O)c(CNc3ccccc3)cc3ccc(OC)cc32)cc1 [Compound 2II] | > 20 µM |
| COc1ccc(NCc2cc3cc(C)ccc3n(CC(=O)Nc3cc(C)cc(C)c3)c2=O)cc1 [Compound 2IJ] | > 20 µM |
| CCc1ccc(NC(=O)Cn2c(=O)c(CNc3ccc(OC)cc3)cc3cc4c(cc32)OCCO4)cc1 [Compound 2IK] | > 20 µM |
| CCc1ccc(NCc2cc3ccc(OC)cc3n(CC(=O)Nc3ccc(OC)cc3)c2=O)cc1 [Compound 2IL] | > 20 µM |
| COc1ccc2cc(CNc3ccc(C)cc3)c(=O)n(CC(=O)Nc3c(C)cccc3C)c2c1 [Compound 2IM] | > 20 µM |
| CCc1ccc(NCc2cc3cc(OC)c(OC)cc3n(CC(=O)Nc3cc(C)ccc3C)c2=O)cc1 [Compound 2I] | 1 to 20 µM |
| CCc1ccc(NCc2cc3ccc(OC)cc3n(CC(=O)Nc3ccc(C)cc3C)c2=O)cc1 [Compound 2J] | 1 to 20 µM |
| COc1ccc2cc(CNc3ccc(C)cc3)c(=O)n(CC(=O)Nc3c(C)cc(C)cc3C)c2c1 [Compound 2K] | 1 to 20 µM |
| COc1ccc(NCc2cc3ccc(C)cc3n(CC(=O)Nc3cc(C)ccc3C)c2=O)cc1OC [Compound 2L] | 1 to 20 µM |
| COc1ccc2cc(CNc3ccc(C)cc3)c(=O)n(CC(=O)Nc3ccc(C)cc3Cl)c2c1 [Compound 2M] | 1 to 20 µM |
| CCc1ccc(NCc2cc3cc4c(cc3n(CC(=O)Nc3ccccc3CC)c2=O)OCCO4)cc1 [Compound 2N] | 1 to 20 µM |
| COc1ccc2cc(CNc3ccc(C)cc3)c(=O)n(CC(=O)Nc3ccccc3F)c2c1 [Compound 2O] | 1 to 20 µM |
| CCc1ccc(NCc2cc3cc4c(cc3n(CC(=O)Nc3ccccc3C)c2=O)OCCO4)cc1 [Compound 2P] | 1 to 20 µM |
| COc1ccc2cc(CNc3ccc(C)cc3)c(=O)n(CC(=O)Nc3ccc(Cl)cc3)c2c1 [Compound 2Q] | 1 to 20 µM |
| COc1ccc2cc(CNc3ccccc3)c(=O)n(CC(=O)Nc3cc(C)ccc3C)c2c1 [Compound 2R] | 1 to 20 µM |
| CCOc1ccc(NC(=O)Cn2c(=O)c(CNc3ccc(C)cc3)cc3cc4c(cc32)OCCO4)cc1 [Compound 2S] | 1 to 20 µM |
| CCc1ccc(NCc2cc3ccc(OC)cc3n(CC(=O)Nc3ccccc3F)c2=O)cc1 [Compound 2T] | 1 to 20 µM |
| COc1ccc2cc(CNc3ccc(C)cc3)c(=O)n(CC(=O)Nc3cc(C)ccc3C)c2c1 [Compound 2U] | 1 to 20 µM |
| COc1cc2cc(CNc3ccccc3)c(=O)n(CC(=O)Nc3ccc(C(C)C)cc3)c2cc1OC [Compound 2V] | 1 to 20 µM |
| COc1ccc(NCc2cc3cc4c(cc3n(CC(=O)Nc3cc(C)ccc3C)c2=O)OCCO4)cc1 [Compound 2W] | 1 to 20 µM |
| COc1cc2cc(CNc3ccccc3)c(=O)n(CC(=O)Nc3cc(C)ccc3C)c2cc1OC [Compound 2X] | 1 to 20 µM |
| COc1cc2cc(CNc3ccccc3)c(=O)n(CC(=O)Nc3cccc(Cl)c3C)c2cc1OC [Compound 2Y] | 1 to 20 µM |
